The structures appear in SMILES notation. pIC50: −log10 of the molar value.

This test has as its system acetylated tubulin (Lys40) in HeLa cells. Description: Acetylated α-tubulin measurement in vitro (immunocytochemistry). In kind it is cell-based. Particulars: Homo sapiens, 6 hours incubation, acetylated tubulin (Lys40) by immunocytochemistry, read-out: IC50 (Tubulin deacetylation). How it is done: HeLa cells were cultured in UltraCulture serum-free medium (Lonza) supplemented with 2 mM glutamine (Lonza). Assays were performed at 96-well or 384-well format, differences in assay protocols are detailed in Table 6. Cells per well were plated and incubated overnight at 37° C. overnight in a humidified atmosphere containing 5% CO2. Cell density and seeding volumes are detailed in Table 6. Compounds (dissolved in 100% DMSO) or DMSO (vehicle) were added manually by diluting them in culture medium at 10× final assay concentration and adding 10 μL to cells (96-well protocol). Alternatively, 50 nL compound was added directly to the cell culture using the Echo650 (Labcyte) (384-well protocol). In this assay, the final assay concentration of DMSO is 0.1%-0.4%. Trichostatin A (TSA) was used as a positive control. Cells were incubated with compounds at 37° C. in a humidified atmosphere containing 5% CO2 for 6 hours. Levels of acetylated tubulin (Lys40) were assessed by immunocytochemistry using target-specific antibodies. Cells were fixed with 4% PFA at RT as detailed in Table 6. After 2-3 wash steps with PBS, cells were permeabilized with 0.5% Triton in PBS at RT for 10 minutes followed by 1-2 washes with PBS. To avoid non-specific antibody staining, cells were blocked with 3% BSA in PBS at room temperature for 1 hour. […] Cells were washed 2-3 times with PBS and labelled for 1 h at RT with goat anti-mouse conjugated with Alexa 647 (Thermofisher) and goat anti-rabbit conjugated with Alexa 555 (Thermofisher) secondary antibodies, diluted in 1% BSA to a final concentration of 1:1000. Simultaneously, nuclei were stained with 1:10000-1:15000 Hoechst (Thermofisher). Incubation time and temperature of the primary antibodies are detailed in Table 6. Cells were washed 2-3 times with PBS and they were imaged with the Operetta CLS or Opera Phenix (PerkinElmer). Imaging is further detailed in Table 6. For imaging analysis, the Harmony analysis software (PerkinElmer) was used. Cytoplasmic (defined by total α-tubulin staining) intensities per well were used for α-tubulin (acetylated and total) quantification. Intensities were measured per cell and then averaged per well. Mean intensity levels of acetylated tubulin were normalized to the mean intensity levels of total tubulin. The changes in acetylated tubulin were normalized for each plate using GraphPad Prism software: tubulin acetylation in vehicle (DMSO)-treated cells were set to 0% while tubulin acetylation in TSA-treated cells were set to 100%. EC50 values were calculated using the log(inhibitor) vs. response—Variable slope (four parameters) nonlinear regression in GraphPad Prism software.

For orientation: pIC50 means −log10 of the IC50, conventionally taken in molar units. In the case of `O=C(CO)NCc1ccc(C(=O)CSc2nc(C(F)(F)F)nc3nn(C4CC4)cc23)s1` [Example 79, N-((5-(2-((2-cyclopropyl-6-(trifluoromethyl)-2H-pyrazolo[3,4-d]pyrimidin-4-yl)thio)acetyl)thiophen-2-yl)methyl)-2-hydroxyacetamide], the pIC50 was not below 7.00.

Turning to `COc1ccc2nc(C(F)(F)F)nc(SCC(=O)c3ccc(CNC(=O)CO)s3)c2c1` [Example 80, 2-hydroxy-N-((5-(2-((6-methoxy-2-(trifluoromethyl)quinazolin-4-yl)thio)acetyl)thiophen-2-yl)methyl)acetamide], the negative logarithm of the IC50 (pIC50) is 6.30 to 7.00.

Take `Cc1nc(SCC(=O)c2ccc(CNC(=O)CO)s2)c2cc(N3CCOCC3)ccc2n1` [Example 81, 2-hydroxy-N-((5-(2-((2-methyl-6-morpholinoquinazolin-4-yl)thio)acetyl)thiophen-2-yl)methyl)acetamide]: the negative-log IC50 (pIC50) is 6.30 to 7.00.

For the compound `Cc1nc(SCC(=O)c2ccc(CNC(=O)CO)s2)c2cc(N3CCCCC3)ccc2n1` [Example 82, 2-hydroxy-N-((5-(2-((2-methyl-6-(piperidin-1-yl)quinazolin-4-yl)thio)acetyl)thiophen-2-yl)methyl)acetamide], the pIC50 is not below 7.00.

Take `Cc1nc(SCC(=O)c2ccc(CNC(=O)CO)s2)c2cc(N3CCCOCC3)ccc2n1` [Example 83, 2-hydroxy-N-((5-(2-((2-methyl-6-(1,4-oxazepan-4-yl)quinazolin-4-yl)thio)acetyl)thiophen-2-yl)methyl)acetamide]: the pIC50 is not below 7.00.

For the compound `Cc1nc(SCC(=O)c2ccc(CNC(=O)CO)s2)c2cc(N3CCC(F)(F)C3)ccc2n1` [Example 84, N-((5-(2-((6-(3,3-difluoropyrrolidin-1-yl)-2-methylquinazolin-4-yl)thio)acetyl)thiophen-2-yl)methyl)-2-hydroxyacetamide], the negative logarithm of the IC50 (pIC50) is not below 7.00.

In the case of `Cc1nc(SCC(=O)c2ccc(CNC(=O)CO)s2)c2cc(N3CCN(C)CC3)ccc2n1` [Example 85, 2-hydroxy-N-((5-(2-((2-methyl-6-(4-methylpiperazin-1-yl)quinazolin-4-yl)thio)acetyl)thiophen-2-yl)methyl)acetamide], the pIC50 is not below 7.00.

For `Cn1ncc2c(SCC(=O)c3ccc(C4CCN(C(=O)CO)C4)s3)ncnc21` (stereo not drawn) [Example 86, 2-hydroxy-1-(3-(5-(2-((1-methyl-1H-pyrazolo[3,4-d]pyrimidin-4-yl)thio)acetyl)thiophen-2-yl)157yrrolidine-1-yl)ethan-1-one], the pIC50 was 5.48 to 6.00.

Consider `Cn1ncc2c(SCC(=O)c3ccc(CNS(C)(=O)=O)s3)ncnc21` [Example 87], for which the pIC50 is 5.48 to 6.00.

As for `CN(Cc1ccc(C(=O)CSc2ncnc3c2cnn3C)s1)S(=O)(=O)C1CC1` [Example 91, N-methyl-N-((5-(2-((1-methyl-1H-pyrazolo[3,4-d]pyrimidin-4-yl)thio)acetyl)thiophen-2-yl)methyl)cyclopropanesulfonamide], the pIC50 was less than 5.48.

Turning to `CS(=O)(=O)N1CCC(c2ccc(C(=O)CSc3nc(C(F)(F)F)nc4ccccc34)s2)C1` (stereo not drawn) [Example 95, 1-(5-(1-(methylsulfonyl)161yrrolidine-3-yl)thiophen-2-yl)-2-((2-(trifluoromethyl)quinazolin-4-yl)thio)ethanone], the pIC50 is 6.00 to 6.30.

For `Cc1nc(SCC(=O)c2ccc(CNS(C)(=O)=O)s2)c2ccccc2n1` [Example 97, N-((5-(2-((2-methylquinazolin-4-yl)thio)acetyl)thiophen-2-yl)methyl)methanesulfonamide], the pIC50 was 5.48 to 6.00.

For `CS(=O)(=O)NCCc1ccc(C(=O)CSc2nc(C(F)(F)F)nc3ccccc23)s1` [Example 98, N-(2-(5-(2-((2-(trifluoromethyl)quinazolin-4-yl)thio)acetyl)thiophen-2-yl)ethyl)methanesulfonamide], the pIC50 was 5.48 to 6.00.

As to `Cc1nc(SCC(=O)c2ccc(CNC(=O)CO)s2)c2cc(C3CC3)ccc2n1` [Example 106, N-((5-(2-((6-cyclopropyl-2-methylquinazolin-4-yl)thio)acetyl)thiophen-2-yl)methyl)-2-hydroxyacetamide], the pIC50 is 6.30 to 7.00.

In the case of `Cc1cc2nc(C(F)(F)F)nc(SCC(=O)c3ccc(CNC(=O)CO)s3)n2n1` [Example 107, 2-hydroxy-N-((5-(2-((7-methyl-2-(trifluoromethyl)pyrazolo[1,5-a][1,3,5]triazin-4-yl)thio)acetyl)thiophen-2-yl)methyl)acetamide], the pIC50 was 6.30 to 7.00.

As to `COc1cc(F)c2nc(C)nc(SCC(=O)c3ccc(CNC(=O)CO)s3)c2c1` [Example 108, N-((5-(2-((8-fluoro-6-methoxy-2-methylquinazolin-4-yl)thio)acetyl)thiophen-2-yl)methyl)-2-hydroxyacetamide], the pIC50 is 6.30 to 7.00.

Regarding `COc1ccc2nc(C)nc(SCC(=O)c3ccc(CN(C)C(=O)CO)s3)c2c1` [Example 109, 2-hydroxy-N-((5-(2-((6-methoxy-2-methylquinazolin-4-yl)thio)acetyl)thiophen-2-yl)methyl)-N-methylacetamide], the pIC50 was 6.30 to 7.00.

In the case of `Cc1nc(SCC(=O)c2ccc(CNC(=O)C3CC3(F)F)s2)c2cccnc2n1` (stereo not drawn) [Example 110, 2,2-difluoro-N-((5-(2-((2-methylpyrido[2,3-d]pyrimidin-4-yl)thio)acetyl)thiophen-2-yl)methyl)cyclopropane-1-carboxamide], the pIC50 is not below 7.00.

In the case of `Cn1cc2c(SCC(=O)c3ccc(CNC(=O)C4CC4(F)F)s3)nc(C(F)(F)F)nc2n1` (stereo not drawn) [Example 111, 2,2-difluoro-N-((5-(2-((2-methyl-6-(trifluoromethyl)-2H-pyrazolo[3,4-d]pyrimidin-4-yl)thio)acetyl)thiophen-2-yl)methyl)cyclopropane-1-carboxamide], the pIC50 was 6.30 to 7.00.

For `O=C(CO)NCc1ccc(C(=O)CSc2nc(C(F)(F)F)nc3cc(C4CC4)nn23)s1` [Example 112, N-((5-(2-((7-cyclopropyl-2-(trifluoromethyl)pyrazolo[1,5-a][1,3,5]triazin-4-yl)thio)acetyl)thiophen-2-yl)methyl)-2-hydroxyacetamide], the negative logarithm of the IC50 (pIC50) was 6.30 to 7.00.

With `O=C(CO)NCc1ccc(C(=O)CSc2nc(C(F)(F)F)nc3ncccc23)s1` [Example 113, 2-hydroxy-N-((5-(2-((2-(trifluoromethyl)pyrido[2,3-d]pyrimidin-4-yl)thio)acetyl)thiophen-2-yl)methyl)acetamide], the pIC50 is not below 7.00.

For `O=C(CSc1nc(C(F)(F)F)nc2ncccc12)c1ccc(CNC(=O)C2CC2(F)F)s1` (stereo not drawn) [Example 114, 2,2-difluoro-N-((5-(2-((2-(trifluoromethyl)pyrido[2,3-d]pyrimidin-4-yl)thio)acetyl)thiophen-2-yl)methyl)cyclopropane-1-carboxamide], the pIC50 is not below 7.00.

Regarding `COc1ccc2nc(C)nc(SCC(=O)c3ccc(CCN4CCC(O)C4=O)s3)c2c1` (stereo not drawn) [Example 115, 3-hydroxy-1-(2-(5-(2-((6-methoxy-2-methylquinazolin-4-yl)thio)acetyl)thiophen-2-yl)ethyl)pyrrolidin-2-one], the negative logarithm of the IC50 (pIC50) is 6.00 to 6.30.

On to `CN(Cc1ccc(C(=O)CSc2nc(C(F)(F)F)nc3nn(C)cc23)s1)C(=O)CO` [Example 116, 2-hydroxy-N-methyl-N-((5-(2-((2-methyl-6-(trifluoromethyl)-2H-pyrazolo[3,4-d]pyrimidin-4-yl)thio)acetyl)thiophen-2-yl)methyl)acetamide], for which the pIC50 is 6.30 to 7.00.

Source of the values: patent publication US12421222B2 (AUGUSTINE THERAPEUTICS, priority 2021, dated 2025).
